# Experiments:
# [1] = target: T1, human serotonin transporter (hSERT) (Homo sapiens, UniProt P31645); experiment: Human transporter binding studies: radioligand binding to cloned hSERT ([3H]imipramine); conditions: for Kd: HEK-293 cell membranes, 1.0 nM [3H]imipramine, 22° C., 60 minutes, geometric mean of at least three experiments; for specificity for hSERT relative to hNET and hDAT (in words): comparison of Kd values between transporters; for specificity for hSERT compared to venlafaxine (in words): comparison of Kd values with venlafaxine
# T1 construct: expressed in transfected cells
# T1 sequence (P31645 whole entry): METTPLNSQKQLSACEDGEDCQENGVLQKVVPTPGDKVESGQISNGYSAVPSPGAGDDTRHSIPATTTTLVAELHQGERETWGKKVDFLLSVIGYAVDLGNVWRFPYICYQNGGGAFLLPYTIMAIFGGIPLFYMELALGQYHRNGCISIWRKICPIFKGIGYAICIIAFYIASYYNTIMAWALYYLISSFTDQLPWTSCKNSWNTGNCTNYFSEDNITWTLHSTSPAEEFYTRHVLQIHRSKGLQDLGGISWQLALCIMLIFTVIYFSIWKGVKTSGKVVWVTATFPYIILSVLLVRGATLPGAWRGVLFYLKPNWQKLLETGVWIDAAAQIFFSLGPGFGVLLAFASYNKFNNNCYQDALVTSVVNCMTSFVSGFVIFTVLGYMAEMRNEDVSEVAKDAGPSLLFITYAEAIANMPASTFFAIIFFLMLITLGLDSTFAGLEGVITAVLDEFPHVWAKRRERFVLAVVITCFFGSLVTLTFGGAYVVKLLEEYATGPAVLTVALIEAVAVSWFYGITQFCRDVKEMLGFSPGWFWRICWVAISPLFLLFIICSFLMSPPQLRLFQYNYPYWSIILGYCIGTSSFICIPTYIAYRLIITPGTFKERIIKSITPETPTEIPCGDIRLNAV
# Procedure: (§1) The cells were incubated in 10% CO2, 90% air at 37° C. and 100% humidity. The hNET cell cultures contained 250 μg/mL geneticin sulfate. The cells were grown to 70–80% confluency prior to harvesting.
# (§2) Cell membranes containing hSERT, hNET, or hDAT were prepared from the cell lines to assay ligand binding for each of the transporters. […] The washed cells were incubated for 5 minutes at 38° C. in 10 mL solution 1 containing 100 mM ethylene glycol-bis N,N,N′,N′-tetraacetic acid (EGTA). The cells were then scraped from the flask surface with a rubber spatula, placed into a centrifuge tube, and collected by centrifugation at 1000×g for 5 minutes at 4° C. The resulting supernatant was discarded, and the cell pellet was resuspended in 0.5 to 1.0 mL of the appropriate binding buffer (described below). The resuspended cell pellet was homogenized using a Polytron for 10 seconds at setting 6. The resulting homogenate was centrifuged at about 36,000×g for 10 minutes at 4° C. The supernatant was discarded, and the pellet was resuspended in the same volume of the appropriate binding buffer and centrifuged again. The supernatant was discarded, and the final pellet containing cell membranes was resuspended in the appropriate binding buffer and stored at −80° C. until use.
# (§3) Radioligand binding assays for the indicated transporters were performed as follows. To assess binding to the cloned hSERT, cells expressing hSERT were homogenized in 50 mM Tris-HCl with 120 mM NaCl and 5 mM KCl (pH 7.4). […] The reactions were incubated at 22° C. for 60 minutes. Following incubation, the reactions were terminated by rapid filtration through separate GF/B filter strips pretreated with 0.2% polyethylenimine in a 48-well Brandel cell harvester. The cell membrane-containing filter strips were then rinsed five times with ice-cold 0.9% NaCl. After rinsing, individual filters were cut from the strip and placed in a scintillation vial containing 6.5 mL of Redi-Safe (Beckman Instruments, Fullerton, Calif.). Radioactivity was measured with a Beckman liquid scintillation counter (LS 5000TD).
# (§4) The program was modified to calculate the Hill coefficient (nH). Data are presented as geometric mean ±S.E.M. of at least three independent experiments. One-component models and two-component models were compared using the root mean square error of each fit and the F test.
# [2] = target: T2, human dopamine transporter (hDAT) (Homo sapiens, UniProt Q01959); experiment: Human transporter binding studies: radioligand binding to cloned hDAT ([3H]WIN35428); conditions: for Kd: HEK-293 cell membranes, 1 nM [3H]WIN35428, 22° C., 1 hour, geometric mean of at least three experiments; for specificity for hDAT compared to venlafaxine (in words): comparison of Kd values with venlafaxine
# T2 construct: expressed in transfected cells
# T2 sequence (Q01959 whole entry): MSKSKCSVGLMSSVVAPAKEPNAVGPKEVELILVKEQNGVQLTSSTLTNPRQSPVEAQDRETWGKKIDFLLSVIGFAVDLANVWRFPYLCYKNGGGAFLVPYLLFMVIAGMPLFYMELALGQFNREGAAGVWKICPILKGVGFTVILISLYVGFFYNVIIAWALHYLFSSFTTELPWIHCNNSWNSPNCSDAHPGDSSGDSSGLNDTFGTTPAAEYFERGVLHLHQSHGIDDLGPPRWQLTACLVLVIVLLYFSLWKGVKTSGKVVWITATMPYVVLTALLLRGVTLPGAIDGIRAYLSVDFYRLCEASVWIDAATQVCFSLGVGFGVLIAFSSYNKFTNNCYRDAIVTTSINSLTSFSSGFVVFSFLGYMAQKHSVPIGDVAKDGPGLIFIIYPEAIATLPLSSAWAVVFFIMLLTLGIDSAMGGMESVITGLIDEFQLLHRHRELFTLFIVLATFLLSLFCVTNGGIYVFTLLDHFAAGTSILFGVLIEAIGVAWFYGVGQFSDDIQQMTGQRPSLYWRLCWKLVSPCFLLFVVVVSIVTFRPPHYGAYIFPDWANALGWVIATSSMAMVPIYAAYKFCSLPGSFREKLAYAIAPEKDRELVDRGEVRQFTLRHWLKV
# Procedure: as §1, §2
# as §3, with “To” for “Radioligand binding assays for the indicated transporters were performed as follows. To”, “hDAT,” for “hSERT,”, “hDAT” for “hSERT”, “NaCl” for “NaCl and 5 mM KCl”, “1 hour.” for “60 minutes.”
# as §4
# [3] = target: T3, human norepinephrine transporter (hNET) (Homo sapiens, UniProt P23975); experiment: Human transporter binding studies: radioligand binding to cloned hNET ([3H]nisoxetine); conditions: for Kd: HEK-293 cell membranes, 0.5 nM [3H]nisoxetine, 22° C., 60 minutes, geometric mean of at least three experiments; for specificity for hNET compared to venlafaxine (in words): comparison of Kd values with venlafaxine
# T3 construct: expressed in transfected cells
# T3 sequence (P23975 whole entry): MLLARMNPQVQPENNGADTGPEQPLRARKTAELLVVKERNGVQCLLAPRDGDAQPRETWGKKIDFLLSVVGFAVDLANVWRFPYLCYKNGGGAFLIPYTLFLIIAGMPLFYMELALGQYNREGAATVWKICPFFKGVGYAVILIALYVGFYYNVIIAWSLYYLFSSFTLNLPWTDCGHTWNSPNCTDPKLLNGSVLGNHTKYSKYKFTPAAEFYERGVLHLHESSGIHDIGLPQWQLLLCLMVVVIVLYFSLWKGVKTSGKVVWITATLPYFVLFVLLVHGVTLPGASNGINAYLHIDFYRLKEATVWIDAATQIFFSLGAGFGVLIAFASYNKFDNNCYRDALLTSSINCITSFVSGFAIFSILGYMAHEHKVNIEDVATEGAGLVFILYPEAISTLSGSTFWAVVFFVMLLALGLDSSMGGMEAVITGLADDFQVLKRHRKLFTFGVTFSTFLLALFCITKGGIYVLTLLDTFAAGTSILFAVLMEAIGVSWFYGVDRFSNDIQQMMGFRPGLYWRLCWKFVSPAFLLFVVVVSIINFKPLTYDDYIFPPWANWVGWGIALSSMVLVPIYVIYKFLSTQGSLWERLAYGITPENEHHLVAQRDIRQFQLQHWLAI
# Procedure: as §1, §2
# To assess binding to the cloned hNET, cells expressing hNET were homogenized in 50 mM Tris-HCl with 300 mM NaCl and 5 mM KCl (pH 7.4). […] A reaction to determine non-specific binding consisted of 25 μg cell membrane protein, 0.5 nM [^3H]nisoxetine, and 1 μM final concentration of unlabeled nisoxetine. The reactions were incubated at 22° C. for 60 minutes. Following incubation, the reactions were terminated by rapid filtration through separate GF/B filter strips pretreated with 0.2% polyethylenimine in a 48-well Brandel cell harvester. The cell membrane-containing filter strips were then rinsed five times with ice-cold 0.9% NaCl. After rinsing, individual filters were cut from the strip and placed in a scintillation vial containing 6.5 mL of Redi-Safe (Beckman Instruments, Fullerton, Calif.). Radioactivity was measured with a Beckman liquid scintillation counter (LS 5000TD).
# as §4
SMILES,Kd [1] [nM],Kd [2] [nM],Kd [3] [nM],specificity for hSERT relative to hNET and hDAT (in words) [1],specificity for hSERT compared to venlafaxine (in words) [1],specificity for hDAT compared to venlafaxine (in words) [2],specificity for hNET compared to venlafaxine (in words) [3],binding to hNET ranked among all compounds tested (in words) [3],specificity for hNET relative to hSERT and hDAT (in words) [3]
"CC(C)C(O)C(CN)c1ccc2ccccc2c1 (racemic) [Compound C, racemic mixture of (2R, 3S)- and (2S, 3R)-3-hydroxy-4-methyl-2-(2′-naphthyl)pentylamine]",5.7,880,329,more potent inhibitor of hSERT than of hNET or hDAT,greater specificity for all three transporters compared to venlafaxine,greater specificity for all three transporters compared to venlafaxine,greater specificity for all three transporters compared to venlafaxine,–,–
"CC(C)C(O)C(CN)c1ccc2ccccc2c1 (single isomer, unassigned) [Compound C2]",15.1,1600,140,greater specificity for hSERT than for hNET of hDAT,–,greater specificity for all three transporters compared to venlafaxine,–,–,–
"CN(C)C[C@H](c1ccc2ccccc2c1)[C@@H](O)c1ccccc1 (racemic) [F, racemic mixture of (2S, 3R)- and (2R, 3S)-N,N-dimethyl-3-hydroxy-2-(2′-naphthyl)-3-phenylpropylamine]",–,–,–,–,–,greater specificity for hDAT compared to vanlafaxine,–,–,–
"CNCC(c1ccc2ccccc2c1)C(O)c1ccccc1 (racemic) [Compound A, racemic mixture of (2R, 3R)- and (2S, 3S)-N-methyl-3-hydroxy-2-(2′-naphthyl)-3-phenylpropylamine]",6.3,130,0.25,–,–,–,–,strongest binding to hNET of all the compounds tested,greater specificity for hNET than for hSERT or hDAT
"CNCC(c1ccc2ccccc2c1)C(O)c1ccccc1 (racemic) [Compound B, racemic mixture of (2S, 3R)- and (2R, 3S)-N-methyl-3-hydroxy-2-(2′-naphthyl)-3-phenylpropylamine]",–,390,–,–,–,greater specificity for hDAT than the parent analogue venlfaxine,–,–,–
"CC(C)[C@H](O)[C@@H](CN(C)C)c1ccc2ccccc2c1 [Compound D1, (2R, 3S)-N,N-dimethyl-3-hydroxy-4-methyl-2-(2′-naphthyl)pentylamine]",4.2,150,7.4,–,greater specificity for all three transporters compared to venlafaxine,greater specificity for all three transporters compared to venlafaxine,greater specificity for all three transporters compared to venlafaxine,–,–

# More lines, in order of falling Kd [2], values ahead:
Kd [1] [nM],Kd [2] [nM],Kd [3] [nM],SMILES,specificity for hSERT relative to hNET and hDAT (in words) [1],specificity for hSERT compared to venlafaxine (in words) [1],specificity for hDAT compared to venlafaxine (in words) [2],specificity for hNET compared to venlafaxine (in words) [3],binding to hNET ranked among all compounds tested (in words) [3],specificity for hNET relative to hSERT and hDAT (in words) [3]
7,1280,150,"CC(C)C(O)C(CN)c1ccc2ccccc2c1 (single isomer, unassigned) [Compound C1]",greater specificity for hSERT than for hNET of hDAT,greater specificity for all three transporters compared to venlafaxine,greater specificity for all three transporters compared to venlafaxine,greater specificity for all three transporters compared to venlafaxine,–,–
2.6,800,60,"CC(C)[C@@H](O)[C@H](CN(C)C)c1ccc2ccccc2c1 [Compound D2, (2S, 3R)-N,N-dimethyl-3-hydroxy-4-methyl-2-(2′-naphthyl)pentylamine]",greater specificity for hSERT than for hNET or hDAT,greater specificity for all three transporters compared to venlafaxine,greater specificity for all three transporters compared to venlafaxine,greater specificity for all three transporters compared to venlafaxine,–,–
–,420,–,"NCC(c1ccc2ccccc2c1)C(O)c1ccccc1 (racemic) [E, racemic mixture of (2S, 3R)- and (2R, 3S)-3-hydroxy-2-(2′naphthyl)-3-phenylpropylamine]",–,–,greater specificity for hDAT compared to vanlafaxine,–,–,–
0.3,180,14.6,"CC(C)C(O)C(CN(C)C)c1ccc2ccccc2c1 (racemic) [Compound D, racemic mixture of (2R, 3S)- and (2S, 3R)-N,N-dimethyl-3-hydroxy-4-methyl-2-(2′naphthyl)pentylamine]",stronger binding to hSERT than to hNET or hDAT,more potent inhibitor of all three transporters compared to vanlafaxine,more potent inhibitor of all three transporters compared to vanlafaxine,more potent inhibitor of all three transporters compared to vanlafaxine,–,–

# Source: patent US7214826B2, “Amine compounds and inhibiting neurotransmitter reuptake” (Mayo Foundation for Medical Education and Research, priority 2001, dated 2007)
